Assay results from patent US12059420B2 (BRISTOL-MYERS SQUIBB COMPANY, priority 2018, dated 2024).
Structures can show the parent of a compound that is named as a salt.

Biological target: T1, human IDO1 (Homo sapiens, UniProt P14902)
T1 construct: expressed in transfected cells
Assay: IDO inhibition assay in HEK293 cells stably expressing human IDO1 (kynurenine production, Ehrlich reagent, absorbance 490 nm)
Format: cell-based
Details: 20 hours incubation with compound, 500 nM reference standard = 100% inhibition, read-out: IDO1 HEK Human IC50
Summary of the method: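 HEK293 clones stably expressing human IDO1 (10,000 cells/well, phenol red-free RPMI, 10% FBS) were treated with compound for 20 hours at 37° C. After 0.2% TCA and 30 min at 50° C., kynurenine was read with Ehrlich reagent at 490 nm. IC50 was normalised to DMSO (0%) and 500 nM reference standard (100%).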

T1 sequence (P14902 whole entry): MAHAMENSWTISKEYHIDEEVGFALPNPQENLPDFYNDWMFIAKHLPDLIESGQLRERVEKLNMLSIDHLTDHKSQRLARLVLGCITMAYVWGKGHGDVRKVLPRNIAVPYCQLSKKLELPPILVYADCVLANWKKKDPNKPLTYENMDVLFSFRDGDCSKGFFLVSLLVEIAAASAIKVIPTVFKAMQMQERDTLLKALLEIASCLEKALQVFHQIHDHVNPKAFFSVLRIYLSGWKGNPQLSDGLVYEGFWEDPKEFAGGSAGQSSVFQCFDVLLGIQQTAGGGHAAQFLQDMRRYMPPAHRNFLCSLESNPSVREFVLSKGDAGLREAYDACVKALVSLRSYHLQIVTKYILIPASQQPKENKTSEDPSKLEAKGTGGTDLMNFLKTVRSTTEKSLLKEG

Row | Compound | IC50 [nM]
1 | CCN(Cc1ccccc1)c1cc(NC(=O)Cc2ccc(C)cc2)cc(-c2ccccc2-c2nnn[nH]2)n1 [Example 1, N-(2-(2-(1H-tetrazol-5-yl)phenyl)-6-(benzyl(ethyl)amino)pyridin-4-yl)-2-(p-tolyl)acetamide] | 45.4
2 | Cc1ccc(CC(=O)Nc2cc(-c3ccccc3-c3nnn[nH]3)nc(N3CC(C)OC(C)C3)c2)cc1 (stereo not drawn) [Example 125, N-(2-(2-(1H-tetrazol-5-yl)phenyl)-6-(2,6-dimethylmorpholino)pyridin-4-yl)-2-(p-tolyl)acetamide] | 1110
3 | CCN(Cc1ccccc1)c1cc(NC(=O)Nc2ccc(OC(F)F)cc2)cc(-c2ccccc2-c2nnn[nH]2)n1 [Example 280] | 554
4 | CCCN(Cc1ccccc1)c1cc(NC(=O)Nc2ccc(C)nn2)cc(-c2ccccc2-c2nnn[nH]2)n1 [Example 37, 1-(2-(2-(1H-tetrazol-5-yl)phenyl)-6-(benzyl(propyl)amino)pyridin-4-yl)-3-(6-methyl-pyridazin-3-yl) urea] | 3140
5 | CC(C)CN(Cc1ccccc1)c1cc(Nc2ncccn2)cc(-c2ccccc2-c2nnn[nH]2)n1 [Example 141, 6-(2-(1H-tetrazol-5-yl)phenyl)-N2-benzyl-N2-isobutyl-N4-(pyrimidin-2-yl)pyridine-2,4-diamine] | 39.6
6 | CC(C)CN(Cc1ccccc1)c1cc(Nc2ccc(Cl)cc2F)cc(-c2ccccc2-c2nnn[nH]2)n1 [Example 180, 6-(2-(1H-tetrazol-5-yl)phenyl)-N2-benzyl-N4-(4-chloro-2-fluorophenyl)-N2-isobutylpyridine-2,4-diamine] | 2.2
7 | Cc1ccc(CC(=O)Nc2cc(-c3ccccc3-c3nnn[nH]3)nc(N3CCCC(C)(C)C3)c2)cc1 [Example 135, N-(2-(2-(1H-tetrazol-5-yl)phenyl)-6-(3,3-dimethylpiperidin-1-yl)pyridin-4-yl)-2-(p-tolyl)acetamide] | 1240
8 | CCN(Cc1ccccc1)c1cc(NC(=O)Nc2ccc(C(F)(F)F)cc2)cc(-c2ccccc2-c2nnn[nH]2)n1 [Example 276] | 148
9 | Cc1ccc(NC(=O)Nc2cc(-c3ccccc3-c3nnn[nH]3)nc(N(Cc3ccc(F)cc3)CC(C)C)c2)cc1 [Example 78, 1-(2-(2-(1H-tetrazol-5-yl)phenyl)-6-((4-fluorobenzyl)(isobutyl)amino)pyridin-4-yl)-3-(p-tolyl)urea, TFA] | 8.2
10 | CC(C)CN(Cc1ccccc1)c1cc(Nc2ccc3ccccc3n2)cc(-c2ccccc2-c2nnn[nH]2)n1 [Example 154, 6-(2-(1H-tetrazol-5-yl)phenyl)-N2-benzyl-N2-isobutyl-N4-(quinolin-2-yl)pyridine-2,4-diamine] | 54
11 | CC(C)CN(Cc1ccccc1)c1cc(Nc2ccc3nncn3n2)cc(-c2ccccc2-c2nnn[nH]2)n1 [Example 165, 6-(2-(1H-tetrazol-5-yl)phenyl)-N4-([1,2,4]triazolo[4,3-b]pyridazin-6-yl)-N2-benzyl-N2-isobutylpyridine-2,4-diamine] | 1120
12 | CCCN(Cc1ccccc1)c1cc(NC(=O)Nc2ccc(OC(F)(F)F)cc2)cc(-c2ccccc2-c2nnn[nH]2)n1 [Example 268, 1-(2-(2-(1H-tetrazol-5-yl)phenyl)-6-(benzyl(propyl)amino)pyridin-4-yl)-3-(4-(trifluoromethoxy)phenyl)urea] | 30.2
13 | CCCN(Cc1ccccc1)c1cc(NC(=O)CC2CCCC2)cc(-c2ccccc2-c2nn[nH]n2)n1 [Example 218, N-(2-(2-(2H-tetrazol-5-yl)phenyl)-6-(benzyl(propyl)amino)pyridin-4-yl)-2-cyclopentylacetamide] | 1970
14 | CC(C)CN(Cc1ccccc1)c1nc(Nc2nc3ccccc3o2)cc(-c2ccccc2-c2nnn[nH]2)n1 [Example 102, 6-(2-(1H-tetrazol-5-yl)phenyl)-N4-(benzo [d]oxazol-2-yl)-N2-benzyl-N2-isobutylpyrimidine-2,4-diamine] | 8.6
15 | CC(C)CN(c1cc(NC(=O)Nc2ccc(F)cc2F)cc(-c2ccccc2-c2nnn[nH]2)n1)C1CCCCC1 [Example 287, 1-(2-(2-(1H-Tetrazol-5-yl)phenyl)-6-(cyclohexyl(isobutyl)amino)pyridin-4-yl)-3-(2,4-difluorophenyl)urea] | 5990
16 | CCCN(Cc1ccccc1)c1cc(Nc2nnc(C)s2)cc(-c2ccccc2-c2nnn[nH]2)n1 [Example 60, 6-(2-(1H-tetrazol-5-yl)phenyl)-N2-benzyl-N4-(5-methyl-1,3,4-thiadiazol-2-yl)-N2-propylpyridine-2,4-diamine] | 831
17 | CC(C)CN(Cc1ccccc1)c1cc(Nc2cccc(CO)n2)cc(-c2ccccc2-c2nnn[nH]2)n1 [Example 137, (6-((2-(2-(1H-tetrazol-5-yl)phenyl)-6-(benzyl(isobutyl)amino)pyridin-4-yl)amino)pyridin-2-yl)methanol] | 48.7
18 | CCCN(Cc1ccccc1)c1cc(Nc2ccc3nc(C)sc3c2)cc(-c2ccccc2-c2nnn[nH]2)n1 [Example 58, 6-(2-(1H-tetrazol-5-yl)phenyl)-N2-benzyl-N4-(2-methylbenzo [d]thiazol-6-yl)-N2-propylpyridine-2,4-diamine] | 4.2
19 | CC(C)CN(Cc1ccccc1)c1cc(Nc2ccncc2F)cc(-c2ccccc2-c2nnn[nH]2)n1 [Example 139, 6-(2-(1H-tetrazol-5-yl)phenyl)-N2-benzyl-N4-(3-fluoropyridin-4-yl)-N2-isobutylpyridine-2,4-diamine] | 23.4
20 | CCC(CC(=O)O)c1cc(Nc2ccc(Cl)cc2)cc(N(Cc2ccc(F)cc2)CC(C)C)n1 (single isomer, unassigned) [Example 248, 3-(4-((4-chlorophenyl)amino)-6-((4-fluorobenzyl)(isobutyl)amino)pyridin-2-yl)pentanoic acid] | 217
21 | CCCN(Cc1ccccc1)c1cc(NC(=O)Cc2ccc(C)cc2)cc(-c2ccccc2C(=O)O)n1 [Example 17, 2-(6-(benzyl(propyl)amino)-4-(2-(p-tolyl)acetamido)pyridin-2-yl)benzoic acid] | 161

Continued by falling IC50, values first:

Row | IC50 [nM] | Compound
22 | 3360 | CCCN(Cc1ccccc1)c1cc(NC(=O)Cc2cccnc2)cc(-c2ccccc2-c2nn[nH]n2)n1 [Example 292]
23 | 2700 | CCCN(Cc1ccccc1)c1cc(NC(=O)Nc2cc(C)no2)cc(-c2ccccc2-c2nnn[nH]2)n1 [Example 266, 1-(2-(2-(1H-tetrazol-5-yl)phenyl)-6-(benzyl(propyl)amino)pyridin-4-yl)-3-(3-methylisoxazol-5-yl)urea]
24 | 1890 | CCCN(c1cc(NC(=O)Nc2ccc(C)cc2)cc(-c2ccccc2C(=O)O)n1)C1CCCCC1 [Example 257, 2-(6-(cyclohexyl(propyl)amino)-4-(3-(p-tolyl)ureido)pyridin-2-yl)benzoic acid]
25 | 1610 | CCC(CC(=O)O)c1cc(Nc2ccc3nc(C)sc3c2)cc(N(Cc2ccccc2)CC(C)C)n1 (single isomer, unassigned) [Example 243, 3-(6-(benzyl(isobutyl)amino)-4-((2-methylbenzo [d]thiazol-6-yl)amino)pyridin-2-yl)pentanoic acid]
26 | 1040 | Cc1ccc(NC(=O)Nc2cc(-c3ccccc3-c3nnn[nH]3)nc(N(CC(C)C)C3CCCCC3)n2)cc1 [Example 2, 1-(6-(2-(1H-tetrazol-5-yl)phenyl)-2-(cyclohexyl(isobutyl)amino)pyrimidin-4-yl)-3-(p-tolyl)urea]
27 | 669 | CC(C)CN(Cc1ccccc1)c1cc(NC(=O)Cc2ccc(F)c(F)c2)cc(-c2ccccc2-c2nnn[nH]2)n1 [Example 228, N-(2-(2-(1H-tetrazol-5-yl)phenyl)-6-(benzyl(isobutyl)amino)pyridin-4-yl)-2-(3,4-difluorophenyl)acetamide]
28 | 563 | Cc1ccc(Nc2cc(-c3ccccc3-c3nnn[nH]3)nc(N(Cc3ccc(F)cc3)CC(C)C)c2)nn1 [Example 41, 6-(2-(1H-tetrazol-5-yl)phenyl)-N2-(4-fluorobenzyl)-N2-isobutyl-N4-(6-methylpyridazin-3-yl)pyridine-2,4-diamine, TFA]
29 | 393 | Cc1cccnc1Nc1cc(-c2ccccc2-c2nnn[nH]2)nc(N(Cc2ccccc2)CC(C)C)c1 [Example 168, 6-(2-(1H-tetrazol-5-yl)phenyl)-N2-benzyl-N2-isobutyl-N4-(3-methylpyridin-2-yl)pyridine-2,4-diamine]
30 | 279 | CC(C)CN(Cc1ccccc1)c1cc(Nc2nc(C(F)(F)F)ccc2F)cc(-c2ccccc2-c2nnn[nH]2)n1 [Example 151, 6-(2-(1H-tetrazol-5-yl)phenyl)-N2-benzyl-N4-(3-fluoro-6-(trifluoromethyl)pyridin-2-yl)-N2-isobutylpyridine-2,4-diamine]
31 | 129 | Cc1cc(F)cnc1Nc1cc(-c2ccccc2-c2nnn[nH]2)nc(N(Cc2ccccc2)CC(C)C)c1 [Example 183, 6-(2-(1H-tetrazol-5-yl)phenyl)-N2-benzyl-N4-(5-fluoro-3-methylpyridin-2-yl)-N2-isobutylpyridine-2,4-diamine]
32 | 115 | CC(C)CN(Cc1ccccc1)c1cc(Nc2nc3ccc(F)cc3s2)cc(-c2ccccc2-c2nnn[nH]2)n1 [Example 156, 6-(2-(1H-tetrazol-5-yl)phenyl)-N2-benzyl-N4-(6-fluorobenzo[d]thiazol-2-yl)-N2-isobutylpyridine-2,4-diamine]
33 | 40.7 | Cc1ccc(CC(=O)Nc2cc(-c3ccccc3-c3nnn[nH]3)nc(N(Cc3ccccc3)CC(C)C)c2)cc1 [Example 87, N-(2-(2-(1H-tetrazol-5-yl)phenyl)-6-(benzyl(isobutyl)amino)pyridin-4-yl)-2-(p-tolyl)acetamide, TFA]
34 | 26.6 | CCN(Cc1ccccc1)c1cc(NC(=O)Nc2ccc(Cl)cc2F)cc(-c2ccccc2-c2nnn[nH]2)n1 [Example 275]
35 | 24.8 | 6-(2-(1H-tetrazol-5-yl)phenyl)-N2- benzyl-N4-(2-fluoropyridin-3-yl)- N2-isobutylpyridine-2,4-diamine, TFA [Example 54]
36 | 21.3 | CCC(CC(=O)O)c1cc(Nc2ccc(Cl)cc2)cc(N(Cc2ccccc2)C(C)C)n1 (stereo not drawn) [Example 241, 3-(6-(benzyl(isopropyl)amino)-4-((4-chlorophenyl)amino)pyridin-2-yl)pentanoic acid]
